Assay results reported in patent US8513271B2, “Pyrimidine compounds as delta opioid receptor modulators” (Janssen Pharmaceutica, NV, priority 2009, dated 2013).
Read-outs that look alike come from different tables or passages of the source.

Assays:
mu opioid receptor = molecular target: T1, mu opioid receptor (Rattus norvegicus, UniProt P33535); assay: Rat brain mu opioid receptor binding assay; conditions: rat forebrain, [3H]DAMGO ligand; read-out: μ-binding Ki
T1 construct: the forebrains were homogenized in Tris buffer in a Teflon®-glass homogenizer; from tissue; host or cells: forebrain of male Wistar rats, particulate (membrane) preparation

delta opioid receptor [1] = molecular target: T2, delta opioid receptor (Rattus norvegicus, UniProt P33533); assay: Rat brain delta opioid receptor binding assay; conditions: rat forebrain, [3H]naltrindole ligand
T2 construct: the forebrains were homogenized in Tris buffer in a Teflon®-glass homogenizer; from tissue; host or cells: forebrain of male Wistar rats, particulate (membrane) preparation

delta opioid receptor [2] = molecular target: T3, delta opioid receptor (Mus musculus, UniProt P32300); assay: [35S]GTPγS binding assay in NG108-15 cell membranes (delta opioid functional assay), 200 nM screen; assay type: biochemical; conditions: NG108-15 cell membranes; for EC50: averages if tested more than once; for GTPγS δ-opioid receptor Rel Efficacy: relative efficacy from dose response
T3 construct: NG108-15 cell membranes were purchased from Applied Cell Sciences (Rockville, Md.); host or cells: NG108-15 cell membranes

[3] = read-out: δ-binding (Naltrindole ligand) Ki
[4] = δ-binding (Naltrindole ligand) Ki
[5] = read-out: GTPγS δ-opioid receptor EC50

T3 sequence (P32300 whole entry): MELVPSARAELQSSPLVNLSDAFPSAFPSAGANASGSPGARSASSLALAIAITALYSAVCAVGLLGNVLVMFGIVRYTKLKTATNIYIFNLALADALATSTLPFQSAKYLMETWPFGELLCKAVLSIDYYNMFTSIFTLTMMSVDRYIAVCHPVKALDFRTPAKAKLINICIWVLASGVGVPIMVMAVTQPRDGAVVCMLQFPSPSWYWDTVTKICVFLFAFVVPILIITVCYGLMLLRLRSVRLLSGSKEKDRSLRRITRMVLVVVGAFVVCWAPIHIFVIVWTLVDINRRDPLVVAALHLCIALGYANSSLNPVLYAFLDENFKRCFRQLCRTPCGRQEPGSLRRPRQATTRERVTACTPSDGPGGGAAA
T1 sequence (P33535 whole entry): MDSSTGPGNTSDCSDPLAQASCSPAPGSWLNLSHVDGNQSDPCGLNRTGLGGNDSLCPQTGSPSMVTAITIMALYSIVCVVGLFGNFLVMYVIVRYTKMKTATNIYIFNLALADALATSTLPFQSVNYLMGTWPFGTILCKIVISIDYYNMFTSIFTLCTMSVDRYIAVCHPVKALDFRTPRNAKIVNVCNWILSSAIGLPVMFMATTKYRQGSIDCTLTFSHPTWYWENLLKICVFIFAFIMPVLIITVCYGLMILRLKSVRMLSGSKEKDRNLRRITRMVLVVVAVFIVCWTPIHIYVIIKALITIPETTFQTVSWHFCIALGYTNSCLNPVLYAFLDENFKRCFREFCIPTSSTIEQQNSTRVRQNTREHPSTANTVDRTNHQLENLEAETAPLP
T2 sequence (P33533 whole entry): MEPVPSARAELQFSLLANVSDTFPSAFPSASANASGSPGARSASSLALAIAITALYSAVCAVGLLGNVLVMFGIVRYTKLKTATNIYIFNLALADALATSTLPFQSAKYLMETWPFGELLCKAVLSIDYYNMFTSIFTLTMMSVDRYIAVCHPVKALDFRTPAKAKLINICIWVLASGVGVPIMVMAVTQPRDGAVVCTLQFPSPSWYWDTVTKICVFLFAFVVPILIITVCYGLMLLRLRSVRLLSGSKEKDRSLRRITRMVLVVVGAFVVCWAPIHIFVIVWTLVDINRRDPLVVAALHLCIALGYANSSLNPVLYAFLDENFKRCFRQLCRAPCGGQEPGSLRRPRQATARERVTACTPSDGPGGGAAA

`COc1ccc(-c2ncc(NC[C@@H]3CCCN3)c(Oc3ccc(N)cc3)n2)cn1` [Cpd 44] was tested, and the Ki (mu opioid receptor) was 2690 nM and the Ki (delta opioid receptor [1]; [3]) was 4 nM.

`COc1ccc(Oc2nc(-c3cccc(N)c3)ncc2NC[C@@H]2CCCN2)cc1` [Cpd 45] gave a Ki (mu opioid receptor) of 812 nM and a Ki (delta opioid receptor [1]; [3]) of 11 nM.

In the case of `Nc1ccc(Oc2nc(-c3cccnc3)ncc2NC[C@@H]2CCCN2)cc1` [Cpd 46], the Ki (mu opioid receptor) is reported as 3550 nM and the Ki (delta opioid receptor [1]; [4]) is reported as 27 nM.

With `COc1ccc(Oc2nc(-c3nc4ccccc4s3)ncc2NC[C@@H]2CCCN2)cc1` [Cpd 47] the Ki (mu opioid receptor) was 1130 nM and the Ki (delta opioid receptor [1]; [4]) was 6 nM.

`COc1ccc(Oc2nc(-c3nccs3)ncc2NC[C@@H]2CCCN2)cc1` [Cpd 48] was tested, and the Ki (mu opioid receptor) was 862 nM and the Ki (delta opioid receptor [1]; [4]) was 24 nM.

Molecule `COc1ccc(Oc2nc(-c3cc4ccccc4s3)ncc2NC[C@@H]2CCCN2)cc1` [Cpd 49] has a Ki (mu opioid receptor) of 3560 nM and a Ki (delta opioid receptor [1]; [3]) of 103 nM.

Molecule `COc1ccc(Oc2nc(-c3cccc(C(F)(F)F)c3)ncc2NC[C@@H]2CCCN2)cc1` [Cpd 50] has a Ki (mu opioid receptor) of 597 nM and a Ki (delta opioid receptor [1]; [4]) of 55 nM.

`COc1ccc(Oc2nc(-c3cccc(OC(F)(F)F)c3)ncc2NC[C@@H]2CCCN2)cc1` [Cpd 51] was tested, and the Ki (mu opioid receptor) was 1030 nM and the Ki (delta opioid receptor [1]; [4]) was 22 nM.

`Cc1nc2ccc(Oc3nc(-c4cncc(C#N)c4)ncc3NC[C@@H]3CCCN3)cc2s1` [Cpd 88] was tested, and the Ki (delta opioid receptor [1]; [3]) was 14 nM, the EC50 (delta opioid receptor [2]; [5]) was 0.478 µM and the “GTPγS δ-opioid receptor Rel Efficacy” value (delta opioid receptor [2]) was 0.538.

Work on `COc1ccc(Oc2nc(-c3cncnc3)ncc2NC[C@@H]2C[C@H](F)CN2)cc1` [Cpd 89] yielded a Ki (delta opioid receptor [1]; [4]) of 10 nM and an EC50 (delta opioid receptor [2]; [5]) of 1.31 µM.

`Cc1nc2ccc(Oc3nc(-c4cncc(C#N)c4)ncc3NC[C@@H]3CCCN3)cc2s1` [Cpd 90] showed a Ki (delta opioid receptor [1]; [4]) of 9 nM and an EC50 (delta opioid receptor [2]; [5]) of 0.923 µM.

`Cc1nc2ccc(Oc3nc(-c4cncnc4)ncc3NC[C@@H]3CCCN3)cc2s1` [Cpd 91] was tested, and the Ki (delta opioid receptor [1]; [4]) was 22 nM and the EC50 (delta opioid receptor [2]; [5]) was over 10 µM.

`COc1ccc(Oc2nc(-c3cc(C)cc(C)c3)ncc2NC[C@@H]2CCCN2)cc1` [Cpd 92] gave a Ki (delta opioid receptor [1]; [4]) of 35 nM and an EC50 (delta opioid receptor [2]; [5]) of 0.47 µM.

`COc1ccc(Oc2nc(-c3ccc(C#N)nc3)ncc2NC[C@@H]2CCCN2)cc1` [Cpd 95] was tested, and the Ki (delta opioid receptor [1]; [4]) was 11 nM and the EC50 (delta opioid receptor [2]; [5]) was 0.708 µM.

In the case of `COc1c(F)cc(Oc2nc(-c3cncc(C#N)c3)ncc2NC[C@@H]2CCCN2)cc1F` [Cpd 96], the Ki (delta opioid receptor [1]; [4]) is reported as 35 nM and the EC50 (delta opioid receptor [2]; [5]) is reported as 0.749 µM.

For `COc1c(F)cc(Oc2nc(-c3cncnc3)ncc2NC[C@@H]2CCCN2)cc1F` [Cpd 97], the Ki (delta opioid receptor [1]; [4]) was 39 nM and the EC50 (delta opioid receptor [2]; [5]) was 7.12 µM.

For `COc1cccc(Oc2nc(-c3cncnc3)ncc2NC[C@@H]2CCCN2)c1` [Cpd 99], the Ki (delta opioid receptor [1]; [4]) was 59 nM and the EC50 (delta opioid receptor [2]; [5]) was 0.939 µM.

For `COc1cccc(Oc2nc(-c3cccnc3)ncc2NC[C@@H]2CCCN2)c1` [Cpd 100], the Ki (delta opioid receptor [1]; [4]) was 33 nM and the EC50 (delta opioid receptor [2]; [5]) was 1.62 µM.

In the case of `COc1ccc(Oc2nc(-c3cncc(F)c3)ncc2NC[C@@H]2CCCN2)c(F)c1F` [Cpd 102], the Ki (delta opioid receptor [1]; [4]) is reported as 3 nM and the EC50 (delta opioid receptor [2]; [5]) is reported as 0.255 µM.

`COc1ccc(Oc2nc(-c3cncnc3)ncc2NC[C@@H]2CCCN2)c(F)c1F` [Cpd 103] showed a Ki (delta opioid receptor [1]; [4]) of 11 nM and an EC50 (delta opioid receptor [2]; [5]) of 0.311 µM.

Work on `FC(F)Oc1ccc(Oc2nc(-c3cncnc3)ncc2NC[C@@H]2CCCN2)cc1` [Cpd 111] yielded a Ki (delta opioid receptor [1]; [4]) of 9 nM and an EC50 (delta opioid receptor [2]; [5]) of 0.491 µM.

`Fc1cncc(-c2ncc(NC[C@@H]3CCCN3)c(Oc3ccc(OC(F)F)cc3)n2)c1` [Cpd 112] was tested, and the Ki (delta opioid receptor [1]; [3]) was 6 nM, the EC50 (delta opioid receptor [2]; [5]) was 0.33 µM and the “GTPγS δ-opioid receptor Rel Efficacy” value (delta opioid receptor [2]) was 1.082.

Work on `CCCOc1ccc(Oc2nc(-c3cncnc3)ncc2NC[C@@H]2CCCN2)cc1` [Cpd 114] yielded a Ki (delta opioid receptor [1]; [4]) of 8 nM and an EC50 (delta opioid receptor [2]; [5]) of 0.306 µM.

`CCCOc1ccc(Oc2nc(-c3cncc(F)c3)ncc2NC[C@@H]2CCCN2)cc1` [Cpd 115] gave a Ki (delta opioid receptor [1]; [4]) of 52 nM and an EC50 (delta opioid receptor [2]; [5]) of 2.71 µM.

In the case of `CCCCOc1ccc(Oc2nc(-c3cncc(F)c3)ncc2NC[C@@H]2CCCN2)cc1` [Cpd 127], the Ki (delta opioid receptor [1]; [3]) is reported as 224 nM.

`COc1ccc(Oc2nc(-c3cncc(C#N)c3)ncc2NCC2CNCCO2)cc1` (stereo not shown) [Cpd 275] gave a Ki (delta opioid receptor [1]; [4]) of 46 nM and an EC50 (delta opioid receptor [2]; [5]) of 0.922 µM.

In the case of `COc1ccc(Oc2nc(-c3cncc(F)c3)ncc2NCC2CNCCO2)cc1` (stereo not shown) [Cpd 276], the Ki (delta opioid receptor [1]; [3]) is reported as 227 nM.

In the case of `COc1ccc(Oc2nc(-c3cncnc3)ncc2NCC2CNCCO2)cc1` (stereo not shown) [Cpd 277], the Ki (delta opioid receptor [1]; [3]) is reported as 32 nM, the EC50 (delta opioid receptor [2]; [5]) is reported as 1.09 µM and the “GTPγS δ-opioid receptor Rel Efficacy” value (delta opioid receptor [2]) is reported as 1.012.

With `COc1ccc(Oc2nc(-c3cncc(C#N)c3)ncc2NC[C@H]2COCCN2)cc1` [Cpd 280] the Ki (delta opioid receptor [1]; [3]) was 6 nM, the EC50 (delta opioid receptor [2]; [5]) was 0.181 µM and the “GTPγS δ-opioid receptor Rel Efficacy” value (delta opioid receptor [2]) was 0.998.

With `COc1ccc(Oc2nc(-c3cncc(C#N)c3)ncc2NC[C@H](C)N)cc1` [Cpd 292] the Ki (delta opioid receptor [1]; [4]) was 2 nM and the EC50 (delta opioid receptor [2]; [5]) was 0.363 µM.

`COc1ccc(Oc2nc(-c3cncc(C#N)c3)ncc2NCCN)cc1` [Cpd 293] showed a Ki (delta opioid receptor [1]; [4]) of 8 nM and an EC50 (delta opioid receptor [2]; [5]) of 0.317 µM.

`COc1ccc(Oc2nc(-c3cncc(C#N)c3)ncc2NC2CCC(N)CC2)cc1` (stereo not shown) [Cpd 298] was tested, and the Ki (delta opioid receptor [1]; [4]) was 4 nM, the EC50 (delta opioid receptor [2]; GTPγS δ-opioid receptor EC50 (μM)) was 0.087 µM and the “GTPγS δ-opioid receptor Rel Efficacy” value (delta opioid receptor [2]) was 1.012.

In the case of `COc1ccc(Oc2nc(-c3cncnc3)ncc2NC[C@H]2CCCC[C@@H]2N)cc1` [Cpd 300], the Ki (delta opioid receptor [1]; [3]) is reported as 21 nM, the EC50 (delta opioid receptor [2]; [5]) is reported as 1.05 µM and the “GTPγS δ-opioid receptor Rel Efficacy” value (delta opioid receptor [2]) is reported as 0.968.
